The source made the active and inactive calls. Some results are limits rather than exact numbers.

For test [1], the target named is T1, Neuropeptide Y receptor type 1 (Homo sapiens, UniProt P25929).
T1 sequence (P25929 whole entry): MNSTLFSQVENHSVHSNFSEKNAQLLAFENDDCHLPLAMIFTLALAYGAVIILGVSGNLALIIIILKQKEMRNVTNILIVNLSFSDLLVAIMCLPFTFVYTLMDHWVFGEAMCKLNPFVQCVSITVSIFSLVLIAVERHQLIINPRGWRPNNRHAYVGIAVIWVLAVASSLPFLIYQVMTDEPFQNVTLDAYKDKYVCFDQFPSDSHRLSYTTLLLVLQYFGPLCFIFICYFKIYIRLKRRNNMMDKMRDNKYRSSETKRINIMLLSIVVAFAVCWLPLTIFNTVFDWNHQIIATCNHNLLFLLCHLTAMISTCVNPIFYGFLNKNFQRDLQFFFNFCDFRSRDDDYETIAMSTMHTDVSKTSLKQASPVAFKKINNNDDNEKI
Nature of the test: NPY-Y1 receptor antagonist potency, dose response, cell-based (AID 1277). It counts as functional.

Another test addresses T2, Galanin receptor type 3 (Homo sapiens, UniProt O60755).
T2 sequence (O60755 whole entry): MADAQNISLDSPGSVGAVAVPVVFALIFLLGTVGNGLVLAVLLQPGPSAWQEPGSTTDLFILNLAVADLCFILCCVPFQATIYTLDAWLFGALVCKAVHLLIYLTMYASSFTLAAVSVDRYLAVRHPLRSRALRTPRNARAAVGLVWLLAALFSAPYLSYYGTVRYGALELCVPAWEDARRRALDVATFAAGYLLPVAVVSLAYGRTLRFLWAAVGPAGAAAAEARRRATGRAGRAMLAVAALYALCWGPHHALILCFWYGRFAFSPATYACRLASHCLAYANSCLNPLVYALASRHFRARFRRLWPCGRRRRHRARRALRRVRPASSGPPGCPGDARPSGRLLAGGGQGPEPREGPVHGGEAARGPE
Put plainly: Fluorescence-based cell-based primary high throughput dose response assay to identify antagonists of the Galanin Receptor 3 (GalR3). The test is classed as functional.

Test [2] is described as follows: inhibitors of intracellular T. cruzi replication, confirmation, NIH3T3 host cells, beta-gal luminescence (AID 2044).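 Also: intracellular parasites grown in NIH/3T3 mouse fibroblasts as host cells; luminescent beta-galactosidase reporter signal from transgenic T. cruzi replicating inside host cells; inhibitors lower the luminescence signal.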 The test is classed as functional, cell-based.
The target of test [3] is T3, DNA repair protein RAD52 homolog (Homo sapiens, UniProt P43351).
T3 sequence (P43351 whole entry): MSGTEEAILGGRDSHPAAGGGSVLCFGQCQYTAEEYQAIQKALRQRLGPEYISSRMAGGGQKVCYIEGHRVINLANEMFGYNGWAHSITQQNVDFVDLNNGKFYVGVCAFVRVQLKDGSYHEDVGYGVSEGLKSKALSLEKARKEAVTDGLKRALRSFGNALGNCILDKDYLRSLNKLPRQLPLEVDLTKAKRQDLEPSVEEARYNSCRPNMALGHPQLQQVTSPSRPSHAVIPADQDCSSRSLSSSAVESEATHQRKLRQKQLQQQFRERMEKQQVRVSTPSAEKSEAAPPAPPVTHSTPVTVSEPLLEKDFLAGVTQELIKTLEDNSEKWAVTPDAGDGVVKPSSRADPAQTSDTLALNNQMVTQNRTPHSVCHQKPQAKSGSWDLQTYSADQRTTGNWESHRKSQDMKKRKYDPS
It counts as functional, biochemical.

Test [4] is described as follows: inhibitors of firefly luciferase expression or activity, dose response, H4 neuroglioma cells, luminescence (AID 1990). It counts as functional, cell-based.
A short description of test [5]: HepG2 cell cytotoxicity, dose response, cytotoxicity control, ATP luminescence, cherry-pick, set 6 (AID 1053125). The test is classed as functional, cell-based.
Test [6] in a line: Luminescence Cell-Based Dose Response HTS to Identify Inhibitors of 5'UTR Stem-Loop Driven Prion Protein mRNA Translation in H4 Neuroglioblastoma Cells. [Related pubchem assays: 1827 (Project Summary), 1813 (Primary HTS)]. The test is classed as functional.
A short description of test [7]: C. albicans growth with fluconazole, confirmation, fluorescence, retest (AID 2467). The test is classed as functional, cell-based.
The nature of test [8]: cells. The following applies: HEK293.
The nature of test [9]: NIH-3T3 fibroblast cytotoxicity, dose response, cytotoxicity control, cell-based, fluorescence, Alamar Blue, secondary assay (AID 2327).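 Also: NIH-3T3 mouse fibroblasts cultured with fluconazole at 8 µg/mL.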 It counts as functional. (The colour change of resazurin is a common sign of viable cells or microbes.)
A short description of test [10]: inhibitors of SNCA 5'UTR-driven reporter translation, confirmation, H4 neuroglioma cells, luminescence (AID 1988). The test is classed as functional, cell-based.
Test [11] is described as follows: cells. As to conditions: A549.
A short description of test [12]: cytotoxicity toward NIH3T3 fibroblasts, dose response, counter-screen, cell-based, ATP luminescence, mouse fibroblasts (AID 2010).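 Also: cells exposed to compound for about 90 hours before reading.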 It counts as functional.
The target in test [13] is T4, Neuropeptide Y receptor type 2 (Homo sapiens, UniProt P49146).
T4 sequence (P49146 whole entry): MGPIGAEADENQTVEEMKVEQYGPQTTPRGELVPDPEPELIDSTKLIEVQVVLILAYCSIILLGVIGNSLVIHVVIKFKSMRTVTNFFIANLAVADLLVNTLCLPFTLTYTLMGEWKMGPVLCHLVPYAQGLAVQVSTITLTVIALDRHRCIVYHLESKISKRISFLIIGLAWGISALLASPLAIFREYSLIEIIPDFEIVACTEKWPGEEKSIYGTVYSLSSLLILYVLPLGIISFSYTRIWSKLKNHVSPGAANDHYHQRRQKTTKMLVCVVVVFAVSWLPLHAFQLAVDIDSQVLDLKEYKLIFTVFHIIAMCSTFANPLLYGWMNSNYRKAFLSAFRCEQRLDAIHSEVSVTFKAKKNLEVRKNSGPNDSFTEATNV
Put plainly: NPY-Y2 antagonist potency, selectivity check, dose response, counter-screen for NPY-Y1 antagonist project, cell-based (AID 1278). The test is classed as functional.

A short description of test [14]: cells.
Test [15] can be described thus: cells. It counts as functional, cell-based. As to conditions: HEK-CNG.
The target of test [16] is T5, Serine/threonine-protein phosphatase (Candida dubliniensis (strain CD36 / CBS 7987 / NCPF 3949 / NRRLY-17841) (Yeast), UniProt B9W6M3).
T5 sequence (B9W6M3 whole entry): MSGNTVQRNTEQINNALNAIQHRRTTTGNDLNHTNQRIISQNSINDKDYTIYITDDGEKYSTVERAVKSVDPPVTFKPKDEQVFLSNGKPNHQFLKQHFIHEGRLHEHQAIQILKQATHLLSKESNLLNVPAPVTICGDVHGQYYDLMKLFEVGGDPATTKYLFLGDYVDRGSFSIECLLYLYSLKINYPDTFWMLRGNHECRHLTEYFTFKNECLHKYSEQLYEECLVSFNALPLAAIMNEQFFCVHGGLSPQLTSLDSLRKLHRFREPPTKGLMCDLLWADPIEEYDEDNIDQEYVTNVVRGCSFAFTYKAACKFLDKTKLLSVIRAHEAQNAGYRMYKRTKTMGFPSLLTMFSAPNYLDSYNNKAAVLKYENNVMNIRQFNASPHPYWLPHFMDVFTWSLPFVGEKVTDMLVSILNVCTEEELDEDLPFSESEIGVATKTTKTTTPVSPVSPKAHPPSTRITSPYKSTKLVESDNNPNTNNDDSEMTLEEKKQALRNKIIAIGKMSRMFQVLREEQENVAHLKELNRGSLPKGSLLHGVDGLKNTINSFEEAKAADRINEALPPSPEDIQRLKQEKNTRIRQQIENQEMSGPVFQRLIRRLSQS
Put plainly: calcineurin pathway inhibitors in yeast reporter, dose response, S. cerevisiae, CDRE-lacZ, luminescence, secondary (AID 2388).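 Also: yeast reporter cells carrying a calcineurin-responsive lacZ construct stimulated with calcium chloride; luminescent beta-galactosidase reporter signal in whole cells rather than isolated phosphatase activity; potency for inhibition where a drop in reporter signal means calcineurin blockade.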 It counts as functional, cell-based.

Test [17] addresses ATP-dependent molecular chaperone HSP82 (Candida albicans (strain WO-1) (Yeast), UniProt C4YTQ8). Nature of the test: loss of DOC-induced GRE-beta-galactosidase reporter signal, dose response, Hsp90 inhibitor project, S. cerevisiae, luminescence (AID 2400).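 Also: beta-galactosidase luminescence from glucocorticoid response element reporter as proxy for Hsp90 function; inhibitor potency where signal loss means Hsp90 inhibition.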 It counts as functional, cell-based.

ATP-dependent molecular chaperone HSP82, sequence (C4YTQ8 whole entry): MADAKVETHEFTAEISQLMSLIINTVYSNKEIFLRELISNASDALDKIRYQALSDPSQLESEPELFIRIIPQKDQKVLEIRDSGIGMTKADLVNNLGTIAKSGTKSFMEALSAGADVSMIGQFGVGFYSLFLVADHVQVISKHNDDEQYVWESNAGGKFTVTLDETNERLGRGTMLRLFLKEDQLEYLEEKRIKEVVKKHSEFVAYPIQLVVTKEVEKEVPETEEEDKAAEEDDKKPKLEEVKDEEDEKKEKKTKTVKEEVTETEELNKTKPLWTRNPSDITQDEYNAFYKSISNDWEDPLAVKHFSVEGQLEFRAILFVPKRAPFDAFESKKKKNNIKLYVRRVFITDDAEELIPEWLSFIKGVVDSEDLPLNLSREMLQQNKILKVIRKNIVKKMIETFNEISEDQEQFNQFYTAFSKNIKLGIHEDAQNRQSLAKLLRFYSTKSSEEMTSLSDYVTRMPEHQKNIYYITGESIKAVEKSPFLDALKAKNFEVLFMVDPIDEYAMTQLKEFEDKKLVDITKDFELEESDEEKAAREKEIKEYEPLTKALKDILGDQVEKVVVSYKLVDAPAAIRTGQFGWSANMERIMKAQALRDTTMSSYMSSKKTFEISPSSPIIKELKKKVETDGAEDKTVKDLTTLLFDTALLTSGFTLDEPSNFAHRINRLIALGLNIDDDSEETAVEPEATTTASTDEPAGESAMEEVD

In the case of `CC[n+]1c(/C=C2\SC(c3ccccc3C)=CN2C)sc2ccccc21`, the half-inhibitory concentration (IC50) (usually the point on the concentration scale where inhibition reaches its midpoint) in test [1] is 6.98 µM (active); on Galanin receptor type 3, 0.404 µM (active); in [13] it was 29.6 µM (not active). For the same molecule, the concentration for a half-maximal effect (EC50) – broadly, the concentration at which the effect is half-maximal – was < 0.1 µM (active) in [2]; 8.74 µM (active) in [4]; 8.01 µM (active) in [6]; 0.212 µM (active) in test [7]; > 150 µM (inactive) in test [9]; 0.619 µM (active) in [10]. The EC50 in test [12] was 7.48 µM (active); in “cells [14]”, 0.021 µM (active); in the test “cells [15]”, > 29.9 µM (inactive); in [16], > 180 µM (inactive); in [17], > 150 µM (inactive). The AC50 – broadly, the concentration at which the activity in the assay is half-maximal – in test [3] was 8.2 µM (active); in [5] it was 2.18 µM (active); in the test “cells [8]”, 2.77 µM (active); in the test “cells [11]”, 2.44 µM (active).

The values are drawn from ChEMBL document CHEMBL1201862, “PubChem BioAssay data set” (2004).
